Literature values in patent US6004792A, “Human lysophospholipase” (Incyte Pharmaceuticals, Inc., priority 1998, dated 1999).

Biological target: T1, monomeric 24 kD lysophospholipase (LPL) from rat liver (GI 1552244; SEQ ID NO:3) (Rattus norvegicus, UniProt P70470)
T1 construct: isolated a monomeric, 24 kD LPL from rat liver; host or cells: rat liver (enzyme isolated from tissue, Sugimoto et al. 1996)
Settings: substrate 1-palmitoyl-glycero-3-phosphocholine

T1 sequence (P70470 whole entry): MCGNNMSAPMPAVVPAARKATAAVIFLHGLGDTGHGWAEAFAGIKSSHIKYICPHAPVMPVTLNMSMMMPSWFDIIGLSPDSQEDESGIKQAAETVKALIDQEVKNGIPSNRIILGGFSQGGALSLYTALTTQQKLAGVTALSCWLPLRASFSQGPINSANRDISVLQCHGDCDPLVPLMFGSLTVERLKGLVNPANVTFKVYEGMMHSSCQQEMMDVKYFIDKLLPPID

CCCCCCCCCCCCCCCC(=O)OCC(O)COP(=O)([O-])OCC[N+](C)(C)C (stereo not shown) [1-palmitoyl-glycero-3-phosphocholine]
Vmax: 1.55 µM/min/mg
